Reference: patent US8969247B2, “Method for controlling aquatic weeds” (BASF SE, priority 2005, dated 2015)

What was measured:
Assay type in all cases: in vivo
Hydrilla verticillata [1] = experiment: Experiment 3: greenhouse static exposure of hydrilla to mesotrione; conditions: 500 ppb
Experimental: (§1) Greenhouse and shade house tests were initiated to evaluate the effects of HPPD-inhibitors, exemplary topramezone and mesotrione, for the control of aquatic weeds, exemplary for the control of Hydrilla verticillata.
(§2) To begin the experiment, containers were filled and maintained with a volume of 4000 ml of distilled water at room temperature (24° C.). To each container, an established hydrilla plant (potted in sand mixture) was transferred into the water column. Hydrilla plants were selected for uniformity and length of shoot growth (approx 15 cm). Plants were allowed to equilibrate in the columns for 24 hrs prior to herbicide treatment. Experimental treatments included an untreated control and mesotrione at 500 ppb. Treatments were applied to water columns by the use of a pipette. Amount of herbicide applied was based on the total volume of the containers (4000 ml). After initial herbicide treatment, the water columns were gently stirred to ensure uniform distribution. Treatments were arranged as a complete random design with 3 replications. Each container was considered the experimental unit. Greenhouse conditions were maintained at 24/18° C. (day/night) cycle for the duration of the experiment. Natural day length was supplemented with halogen lighting to provide a 14 hr photoperiod. Water level in the containers was periodically checked and maintained at the 4000 ml level for the duration of the study. At the end of four weeks, hydrilla shoot length and fresh weights were recorded.

Hydrilla verticillata [2] = experiment: Experiment 1: greenhouse static exposure of hydrilla to topramezone; conditions: 500 ppb
Experimental: as §1
as §2, with “topramezone” for “mesotrione”

Hydrilla verticillata [3] = experiment: Experiment 2: shade house (outdoor) static exposure of hydrilla to topramezone; conditions: for Hydrilla Shoot Weight: 8 weeks after treatment, dry weight biomass, control 1.5 g, LSD (0.05) 0.2
Experimental: as §1
Experiment 2 was conducted under shade house (outdoor) conditions. Four 4-liter pots were filled with 15 to 20 cm of sand medium plus amended fertilizer (15 grams Osmocote®^1 19-6-12). Four actively growing Hydrilla verticillata tips (10 to 15 cm in length) were planted 1 to 2 cm deep in medium. The four 4-liter pots were placed in 100-liter containers and covered fully with tap water. Plants were treated 15 days after planting once plant elongation and active growth were observed. There were three 100-liter containers per water treatment (three replications) with four sub-sample 4-liter pots and four Hydrilla verticillata plants per 4-liter pot. Treatments were arranged as a complete random design. ^1 Osmocote®—manufactured by: Scotts-Sierra Horticutural Products Company, Marysville, Ohio 43401 U.S.A
Water treatments of 50 ppb, 75 ppb, 100 ppb, 200 ppb, and 400 ppb of topramezone were installed. Plants were harvested 8 weeks after initial water treatment to determine dry weight biomass reductions compared to the untreated check.

[4] = approximately 14 days after treatment

Row | Compound | Visual observations (Hydrilla verticillata [1]; [4]) | Reduction in shoot biomass (Student's t-Test) (Hydrilla verticillata [1]; end of the study (4 weeks)) | Reduction in shoot length (Student's t-Test) (Hydrilla verticillata [1]; end of the study (4 weeks)) | Hydrilla Fresh Weight (Hydrilla verticillata [1]; static exposure, 4 weeks after treatment, control 4.4 g) | Hydrilla Shoot Length (Hydrilla verticillata [1]; static exposure, 4 weeks after treatment, control 24 cm) | Visual observations (Hydrilla verticillata [2]; [4]) | Reduction in shoot length and biomass (Student's t-Test) (Hydrilla verticillata [2]; end of the study (4 weeks)) | Effect on hydrilla tissue vs. the untreated control (Hydrilla verticillata [2]; over the course of the study) | Hydrilla Fresh Weight (Hydrilla verticillata [2]; static exposure, 4 weeks after treatment, control 17 g) | Hydrilla Shoot Length (Hydrilla verticillata [2]; static exposure, 4 weeks after treatment, control 37 cm) | Hydrilla Shoot Weight (Hydrilla verticillata [3]; 50 ppb) | Reduction in shoot biomass vs. the untreated control (Hydrilla verticillata [3]; 50 to 400 ppb, end of the study (8 weeks)) | Hydrilla Shoot Weight (Hydrilla verticillata [3]; 75 ppb) | Hydrilla Shoot Weight (Hydrilla verticillata [3]; 100 ppb) | Hydrilla Shoot Weight (Hydrilla verticillata [3]; 200 ppb) | Hydrilla Shoot Weight (Hydrilla verticillata [3]; 400 ppb)
1 | CS(=O)(=O)c1ccc(C(=O)C2C(=O)CCCC2=O)c([N+](=O)[O-])c1 [mesotrione] | significant bleaching and reddening in the new grown tips | significant reduction in shoot biomass | did not observe a significant reduction in shoot length | 1.4 grams | 16 cm | – | – | – | – | – | – | – | – | – | – | –
2 | Cc1c(C(=O)c2cnn(C)c2O)ccc(S(C)(=O)=O)c1C1=NOCC1 [topramezone] | – | – | – | – | – | significant bleaching and reddening in the new grown tips | significant reductions in both shoot length and biomass | stunting and dieback of hydrilla tissue | 0.3 grams | 6 cm | 1.3 grams | significant reductions in shoot biomass | 0.8 grams | 0.8 grams | 0.7 grams | 0.6 grams
